Experimental findings from patent publication US9303019B2, “Amino-pyrroline derivatives, and use thereof in the prevention and/or treatment of metabolic syndrome” (UNIVERSITE DE STRASBOURG, priority 2012, dated 2016) are described below.

Molecules are shown by their SMILES. pKi: −log10 of the molar value. Counter-ions that a name gives are not always drawn.

In data set [1] the target is I1 receptor (Homo sapiens, UniProt Q9Y2I1). Briefly: Specific binding assay of the I1 receptor on human platelets with [125I]LNP 911. As for the experimental part:
Binding assays were performed at 37° C. using [^125I]LNP 911 as radioligand following the general procedure described but adapted to washed whole platelets (Greney, H.; Urosevic, D.; Schann, S.; Dupuy, L.; Bruban, V.; Ehrhardt, J,-D.; Bousquet, P.; Dontenwill, M. [^125I]2-(2-Chloro-4-iodo-phenylamino)-5-methyl-pyrroline (LNP911), a High-Affinity Radioligand Selective for I1 Imidazoline Receptors. Mol. Pharmacol. 2002, 62, 181-191).
Incubation was initiated through the addition of 900 to 950 μl of platelet suspension at a concentration of 500000/μl in a final volume of 1 ml Tyrode albumin and was performed at 37° C. for 5 min (equilibrium conditions). The competitive assays were conducted using a single concentration of radioligand ([…], 200 000 cpm), in the presence of increasing concentrations of suitable non-labelled ligand. Non-specific binding was determined by the binding of [^125I]LNP 911 in the presence of 100 nM of non-labelled LNP 911 and represented about 10% of total radioactivity when […] of [^125I]LNP 911 were used.
The reaction was halted by rapid vacuum filtration through GF/C fibre glass filters followed by five rapid washings of the filters with 3 ml of ice-cold Tyrode ([…], pH 7.35). Radioactivity was measured using a gamma counter (Wallac 1410).
(§1) The competitive assays were analyzed by non-linear regression using the GraphPad programme.
(§2) Ki values were determined using the method described by Cheng and Prussof (Cheng, Y. C.; Prusoff, W. H. Relationship between the Inhibition Constant (Ki) and the Concentration of Inhibitor which causes 50 percent Inhibition (I50) of an Enzymatic Reaction. Biochem. Pharmacol. 1973, 22, 3099-3108).

The subject of another data set is α2-adrenergic receptors. The data set can be described thus: Binding assay of the α2-adrenergic receptors on CHO cell membranes with [3H]RX821002. The conditions noted are these: CHO cells. Further details: species or system human. The method, then:
These membranes (30 μg proteins/ml for CHO-hα2A and CHO-hα2B, 100 μg protein/ml for CHO-hα2C) were incubated for 60 min at ambient temperature in binding buffer (33 mM Tris-HCl, 1 mM EDTA, pH 7.5) in a final volume of 500 μL containing 0.8 or 1 or 2 nM [^3H]RX821002 respectively for the adrenergic receptors hα2A, hα2B and hα2C.
Incubation was halted by rapid vacuum filtration through GF/C glass fibre filters followed by three successive washings in ice-cold binding buffer.
Non-specific binding was determined using 10 μM phentolamine.
as §1, §2

Data set [2] deals with I1 receptor (Mus musculus, UniProt Q80TM9). Briefly: Competitive binding to [125I]-PIC in membranes of 3T3 adipocytes. Further details: species or system murine. The conditions noted are these: 3T3 cell membranes.
I1 receptor (Mus musculus, UniProt Q80TM9), sequence (Q80TM9 whole entry, looked up): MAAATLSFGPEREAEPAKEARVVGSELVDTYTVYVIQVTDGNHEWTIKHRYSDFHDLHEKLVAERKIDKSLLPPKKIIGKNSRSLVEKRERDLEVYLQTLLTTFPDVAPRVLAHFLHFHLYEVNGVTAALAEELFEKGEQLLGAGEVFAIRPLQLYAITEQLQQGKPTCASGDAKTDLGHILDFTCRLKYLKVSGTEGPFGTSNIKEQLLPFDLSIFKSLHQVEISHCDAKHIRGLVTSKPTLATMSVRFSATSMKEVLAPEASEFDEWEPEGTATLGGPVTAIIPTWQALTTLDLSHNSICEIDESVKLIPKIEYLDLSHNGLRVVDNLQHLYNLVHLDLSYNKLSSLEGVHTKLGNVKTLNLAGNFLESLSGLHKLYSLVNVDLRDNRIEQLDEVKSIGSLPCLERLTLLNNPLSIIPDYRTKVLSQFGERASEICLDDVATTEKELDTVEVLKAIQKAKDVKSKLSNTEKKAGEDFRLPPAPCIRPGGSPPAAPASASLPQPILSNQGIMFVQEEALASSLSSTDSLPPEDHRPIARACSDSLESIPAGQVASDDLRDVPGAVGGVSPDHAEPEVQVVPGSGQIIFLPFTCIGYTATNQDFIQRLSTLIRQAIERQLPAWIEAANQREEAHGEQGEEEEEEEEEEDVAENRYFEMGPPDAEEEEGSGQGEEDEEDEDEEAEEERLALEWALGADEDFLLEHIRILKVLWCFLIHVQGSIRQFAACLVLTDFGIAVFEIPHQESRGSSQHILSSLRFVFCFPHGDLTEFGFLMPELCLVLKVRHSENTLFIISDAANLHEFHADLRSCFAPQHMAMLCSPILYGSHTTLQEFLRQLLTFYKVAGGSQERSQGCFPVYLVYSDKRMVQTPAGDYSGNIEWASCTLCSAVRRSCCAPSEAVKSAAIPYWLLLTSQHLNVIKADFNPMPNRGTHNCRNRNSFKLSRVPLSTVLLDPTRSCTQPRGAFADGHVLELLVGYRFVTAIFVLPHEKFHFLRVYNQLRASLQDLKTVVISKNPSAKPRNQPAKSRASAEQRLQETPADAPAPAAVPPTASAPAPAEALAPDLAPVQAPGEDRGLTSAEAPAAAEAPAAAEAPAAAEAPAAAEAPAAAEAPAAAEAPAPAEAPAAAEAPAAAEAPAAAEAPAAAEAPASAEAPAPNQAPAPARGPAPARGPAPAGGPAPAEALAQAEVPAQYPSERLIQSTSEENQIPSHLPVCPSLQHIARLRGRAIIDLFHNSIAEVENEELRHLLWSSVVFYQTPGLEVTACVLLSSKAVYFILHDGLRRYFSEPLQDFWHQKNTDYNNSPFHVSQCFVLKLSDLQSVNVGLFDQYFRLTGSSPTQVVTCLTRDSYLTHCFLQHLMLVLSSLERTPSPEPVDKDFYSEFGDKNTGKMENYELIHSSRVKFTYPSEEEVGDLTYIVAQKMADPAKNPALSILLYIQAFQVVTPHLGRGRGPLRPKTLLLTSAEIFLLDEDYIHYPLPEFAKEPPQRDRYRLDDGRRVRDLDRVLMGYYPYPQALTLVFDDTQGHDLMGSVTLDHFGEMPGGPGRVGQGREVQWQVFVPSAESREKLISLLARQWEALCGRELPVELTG
Description: The adipocytes were washed twice with ice-cold PBS, harvested and homogenized in 25 mM Tris-HCl buffer, pH 7.5, 1 mM EDTA. The homogenates were centrifuged at 20,000×g for 15 min at 4° C. and the supernatant stored at −80° C. until use. The residues were re-suspended in 25 mM Tris-HCl buffer, pH 7.5, 1 mM EDTA and stored at −80° C. […]
The reaction was halted by rapid vacuum filtration through GF/B fibre glass filters treated with 0.3% PEI using filtering equipment of Brandel® type, followed by three rapid washings of the filters using 3 ml of ice-cold 50 mM Tris-HCl buffer, pH 7.4. The radioactivity retained on the dried filters was determined using a Minaxi gamma counter (Packard, Meriden, CT, USA). Non-specific binding was determined by [^125I]PIC binding in the presence of 10 μM PIC and represented about 43% of total radioactivity.
The test system of another data set is 3T3-L1 adipocytes. The data set can be described thus: Secretion of adiponectin by differentiated 3T3-L1 adipocytes (ELISA). The class given is cell-based, murine. As for the experimental part: 3T3-L1 murine preadipocytes were cultured to confluence at 37° C. in DMEM medium containing 4.5 g/litre of D-glucose, 10% FCS and antibiotics. At confluence, differentiation of the 3T3-L1 adipocytes was initiated through the addition over 48 h of a mixture containing 100 μM methyl-isobutylxanthine, 100 nm dexamethasone and 175 nM insulin. The cells were then passaged every 2-3 days in DMEM, 10% FCS and 175 nM insulin. More than 95% of cells had the phenotype of mature adipocytes 10 days after confluence was reached.
To determine the secretion of adiponectin by mature adipocytes, differentiated 3T3-L1 adipocytes (10 days after confluence) were placed in culture in 12-well plates and washed three times with DMEM, then cultured for 6 h in DMEM alone, in the absence or presence of 3 μM of compound 1. In some wells the antagonist selective for the imidazoline receptors I1, efaroxan, was added (100 μM) 30 min before exposure to compound 1.
The culture medium was then recovered, centrifuged for 3 min at 10 000 g to remove cell contaminants, and the supernatant was stored at −80° C. until use. After two washings in cold PBS, the adipocytes were collected in PBS, homogenized and stored at −80° C. An aliquot of adipocyte homogenate was stored for protein determination. The adiponectin was measured using an ELISA kit following the manufacturer's recommendations. The adiponectin concentration was normalized with the cell protein content.

I1 receptor (Homo sapiens, UniProt Q9Y2I1), sequence (Q9Y2I1 2-1504 limits assumed): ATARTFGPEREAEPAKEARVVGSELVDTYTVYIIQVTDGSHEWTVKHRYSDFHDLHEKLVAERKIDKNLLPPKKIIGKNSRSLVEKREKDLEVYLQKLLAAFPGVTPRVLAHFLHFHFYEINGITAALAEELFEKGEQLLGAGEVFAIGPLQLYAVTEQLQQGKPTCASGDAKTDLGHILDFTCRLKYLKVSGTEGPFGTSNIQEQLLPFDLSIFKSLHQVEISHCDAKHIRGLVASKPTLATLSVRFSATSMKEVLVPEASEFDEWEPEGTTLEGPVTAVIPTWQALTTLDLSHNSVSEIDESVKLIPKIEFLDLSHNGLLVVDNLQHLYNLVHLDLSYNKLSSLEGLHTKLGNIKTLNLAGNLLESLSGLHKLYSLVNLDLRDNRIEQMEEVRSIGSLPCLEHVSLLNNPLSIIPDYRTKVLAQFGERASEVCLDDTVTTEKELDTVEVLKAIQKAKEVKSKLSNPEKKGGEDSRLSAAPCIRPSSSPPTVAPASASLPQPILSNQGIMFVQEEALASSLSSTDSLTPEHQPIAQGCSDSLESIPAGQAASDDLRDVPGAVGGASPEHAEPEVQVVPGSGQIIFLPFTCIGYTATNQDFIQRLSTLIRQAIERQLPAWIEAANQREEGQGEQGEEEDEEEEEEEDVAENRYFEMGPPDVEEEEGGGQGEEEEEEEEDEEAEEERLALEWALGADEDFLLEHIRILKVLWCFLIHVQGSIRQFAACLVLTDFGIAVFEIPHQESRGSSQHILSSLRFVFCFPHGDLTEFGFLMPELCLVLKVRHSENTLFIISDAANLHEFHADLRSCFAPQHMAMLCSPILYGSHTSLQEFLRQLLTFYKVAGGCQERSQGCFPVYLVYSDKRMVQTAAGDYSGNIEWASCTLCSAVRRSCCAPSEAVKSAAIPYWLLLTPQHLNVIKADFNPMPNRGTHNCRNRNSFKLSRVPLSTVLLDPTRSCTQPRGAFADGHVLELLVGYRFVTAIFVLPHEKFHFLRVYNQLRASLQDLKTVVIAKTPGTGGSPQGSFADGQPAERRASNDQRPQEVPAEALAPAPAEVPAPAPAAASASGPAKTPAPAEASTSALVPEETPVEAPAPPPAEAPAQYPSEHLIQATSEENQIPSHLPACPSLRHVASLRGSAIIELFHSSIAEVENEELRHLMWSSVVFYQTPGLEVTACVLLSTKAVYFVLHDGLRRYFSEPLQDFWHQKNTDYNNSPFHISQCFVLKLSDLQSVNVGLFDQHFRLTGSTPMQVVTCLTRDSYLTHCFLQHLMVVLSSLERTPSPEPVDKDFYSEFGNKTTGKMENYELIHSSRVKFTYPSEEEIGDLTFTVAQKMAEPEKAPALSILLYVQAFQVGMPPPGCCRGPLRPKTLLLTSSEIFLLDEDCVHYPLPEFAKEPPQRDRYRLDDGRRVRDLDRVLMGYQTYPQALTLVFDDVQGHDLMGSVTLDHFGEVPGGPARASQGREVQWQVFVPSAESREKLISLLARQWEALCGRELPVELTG

On to `CC1CCC(Nc2cccc3c2CCC3)=N1` (stereo not drawn) [Compound 5, Indan-4-yl-(5-methyl-4,5-dihydro-3H-pyrrol-2-yl)-amine hydrochloride], for which the values for the pKi at I1 receptor [1] and in the data set with α2-adrenergic receptors were 7.72 and less than 5.00, respectively. The molecule `Cc1ccc(NC2=NCC(C)C2)c2c1CCC2` (stereo not drawn) [Compound 9, (7-Methyl-indan-4-yl)-(4-methyl-4,5-dihydro-3H-pyrrol-2-yl)-amine hydrochloride] showed a pKi in the data set with α2-adrenergic receptors of less than 5.00. On to `CC1CCC(Nc2ccc(Cl)c3c2CCC3)=N1` (stereo not drawn) [Compound 20, (7-Chloro-indan-4-yl)-(5-methyl-4,5-dihydro-3H-pyrrol-2-yl)-amine hydrochloride], for which the pKi at I1 receptor [1] is 8.55; in the data set with α2-adrenergic receptors, less than 5.00. In the case of `Clc1cccc(Cl)c1N=C1NCCN1` [clonidine], the “share of total sites with high affinity” value at I1 receptor [2] was 57%. Take `CCC1(C2=NCCN2)Cc2ccccc2O1` (stereo not drawn) [efaroxan]: in the data set with 3T3-L1 adipocytes (100 μmol/l, control 212.6±19.1), the “secretion of adiponectin, efaroxan alone” value is 175.2±15.5 ng/ml/mg of proteins. For the same molecule, the “secretion of adiponectin, pre-incubation with efaroxan before compound 1” value in the data set on 3T3-L1 adipocytes (efaroxan 100 μmol/l 30 min before compound 1 3 μmol/l, vs. 378±38 with compound 1 alone) is 236±19.2 ng/ml/mg of proteins. In the case of `CC1CN=C(Nc2ccc(Cl)c3c2CCC3)C1` (stereo not drawn) [Compound 8, (7-Chloro-indan-4-yl)-(4-methyl-4,5-dihydro-3H-pyrrol-2-yl)-amine hydrochloride], the pKi at I1 receptor [1] was 9.66; with α2-adrenergic receptors, less than 5.00. `CC1CCC(Nc2ccccc2Cl)=N1.Cl` (stereo not drawn) [Compound 13, (2-Chlorophenyl)-(5-methyl-4,5-dihydro-3H-pyrrol-2-yl)-amine hydrochloride] showed a melting point of 173 to 174 °C. The negative-log Ki (pKi) in the data set with α2-adrenergic receptors was less than 5.00.
